Measured values: patent US20060263802A1 (priority 2003, published 2006)

Columns and labels:
Assay type in all cases: binding
[1] = test system: human monoclonal antibody CRJB
[2] = test system: human monoclonal antibody CR57
[3] = test system: human monoclonal antibody CRJA
[4] = test system: human monoclonal antibody CRJA; remark: listed apart in the source
[5] = test system: human monoclonal antibody CR57; remark: listed apart in the source
[6] = test system: human monoclonal antibody CRJB; remark: listed apart in the source

FRPTPDACRAAYNWK
Binding of CRJB to linear peptide (PEPSCAN-ELISA signal) [1]: 112
Binding of CR57 (10 μg/ml) to looped/cyclic peptide (PEPSCAN-ELISA signal) [2]: 90
Binding of CRJA (10 μg/ml) to looped/cyclic peptide (PEPSCAN-ELISA signal) [3]: 125
Binding of CRJA to linear peptide (PEPSCAN-ELISA signal) [4]: 104
Binding of CR57 to linear peptide (PEPSCAN-ELISA signal) [5]: 43
Binding of CRJB (10 μg/ml) to looped/cyclic peptide (PEPSCAN-ELISA signal) [6]: 88

SLLQQHMELLESSVI
Binding of CRJB to linear peptide (PEPSCAN-ELISA signal) [1]: 163
Binding of CR57 (10 μg/ml) to looped/cyclic peptide (PEPSCAN-ELISA) [2]: 113
Binding of CRJA (10 μg/ml) to looped/cyclic peptide (PEPSCAN-ELISA) [3]: 101
Binding of CRJA to linear peptide (PEPSCAN-ELISA signal) [4]: 108
Binding of CR57 to linear peptide (PEPSCAN-ELISA signal) [5]: 124
Binding of CRJB (10 μg/ml) to looped/cyclic peptide (PEPSCAN-ELISA) [6]: 85

SSVIPLVHPLADPST
Binding of CRJB to linear peptide (PEPSCAN-ELISA signal) [1]: 104
Binding of CR57 (10 μg/ml) to looped/cyclic peptide (PEPSCAN-ELISA) [2]: 120
Binding of CRJA (10 μg/ml) to looped/cyclic peptide (PEPSCAN-ELISA) [3]: 45
Binding of CRJA to linear peptide (PEPSCAN-ELISA signal) [4]: 60
Binding of CR57 to linear peptide (PEPSCAN-ELISA signal) [5]: 73
Binding of CRJB (10 μg/ml) to looped/cyclic peptide (PEPSCAN-ELISA) [6]: 80

EECLDALESIMTTKS
Binding of CRJB to linear peptide (PEPSCAN-ELISA signal) [1]: 120
Binding of CR57 (10 μg/ml) to looped/cyclic peptide (PEPSCAN-ELISA) [2]: 105
Binding of CRJA (10 μg/ml) to looped/cyclic peptide (PEPSCAN-ELISA) [3]: 105
Binding of CRJA to linear peptide (PEPSCAN-ELISA signal) [4]: 98
Binding of CR57 to linear peptide (PEPSCAN-ELISA signal) [5]: 82
Binding of CRJB (10 μg/ml) to looped/cyclic peptide (PEPSCAN-ELISA) [6]: 70

TKESLVIISPSVADL
Binding of CRJB to linear peptide (PEPSCAN-ELISA signal) [1]: 112
Binding of CR57 (10 μg/ml) to looped/cyclic peptide (PEPSCAN-ELISA signal) [2]: 99
Binding of CRJA (10 μg/ml) to looped/cyclic peptide (PEPSCAN-ELISA signal) [3]: 88
Binding of CRJA to linear peptide (PEPSCAN-ELISA signal) [4]: 102
Binding of CR57 to linear peptide (PEPSCAN-ELISA signal) [5]: 86
Binding of CRJB (10 μg/ml) to looped/cyclic peptide (PEPSCAN-ELISA signal) [6]: 80

NSRGKRASKGSETCG
Binding of CRJB to linear peptide (PEPSCAN-ELISA signal) [1]: 100
Binding of CR57 (10 μg/ml) to looped/cyclic peptide (PEPSCAN-ELISA signal) [2]: 107
Binding of CRJA (10 μg/ml) to looped/cyclic peptide (PEPSCAN-ELISA signal) [3]: 71
Binding of CRJA to linear peptide (PEPSCAN-ELISA signal) [4]: 63
Binding of CR57 to linear peptide (PEPSCAN-ELISA signal) [5]: 92
Binding of CRJB (10 μg/ml) to looped/cyclic peptide (PEPSCAN-ELISA signal) [6]: 60

ESIMTTKSVSFRRLS
Binding of CRJB to linear peptide (PEPSCAN-ELISA signal) [1]: 111
Binding of CR57 (10 μg/ml) to looped/cyclic peptide (PEPSCAN-ELISA) [2]: 80
Binding of CRJA (10 μg/ml) to looped/cyclic peptide (PEPSCAN-ELISA) [3]: 49
Binding of CRJA to linear peptide (PEPSCAN-ELISA signal) [4]: 61
Binding of CR57 to linear peptide (PEPSCAN-ELISA signal) [5]: 62
Binding of CRJB (10 μg/ml) to looped/cyclic peptide (PEPSCAN-ELISA) [6]: 92

HLRKLVPGFGKAYTI
Binding of CRJB to linear peptide (PEPSCAN-ELISA signal) [1]: 111
Binding of CR57 (10 μg/ml) to looped/cyclic peptide (PEPSCAN-ELISA) [2]: 118
Binding of CRJA (10 μg/ml) to looped/cyclic peptide (PEPSCAN-ELISA) [3]: 120
Binding of CRJA to linear peptide (PEPSCAN-ELISA signal) [4]: 116
Binding of CR57 to linear peptide (PEPSCAN-ELISA signal) [5]: 99
Binding of CRJB (10 μg/ml) to looped/cyclic peptide (PEPSCAN-ELISA) [6]: 93

SLHNPYPDYRWLRTV
Binding of CRJB to linear peptide (PEPSCAN-ELISA signal) [1]: 111
Binding of CR57 (10 μg/ml) to looped/cyclic peptide (PEPSCAN-ELISA signal) [2]: 104
Binding of CRJA (10 μg/ml) to looped/cyclic peptide (PEPSCAN-ELISA signal) [3]: 99
Binding of CRJA to linear peptide (PEPSCAN-ELISA signal) [4]: 87
Binding of CR57 to linear peptide (PEPSCAN-ELISA signal) [5]: 78
Binding of CRJB (10 μg/ml) to looped/cyclic peptide (PEPSCAN-ELISA signal) [6]: 90

KREECLDALESIMTT
Binding of CRJB to linear peptide (PEPSCAN-ELISA signal) [1]: 113
Binding of CR57 (10 μg/ml) to looped/cyclic peptide (PEPSCAN-ELISA) [2]: 137
Binding of CRJA (10 μg/ml) to looped/cyclic peptide (PEPSCAN-ELISA) [3]: 100
Binding of CRJA to linear peptide (PEPSCAN-ELISA signal) [4]: 83
Binding of CR57 to linear peptide (PEPSCAN-ELISA signal) [5]: 102
Binding of CRJB (10 μg/ml) to looped/cyclic peptide (PEPSCAN-ELISA) [6]: 64

KHFRPTPDACRAAYN
Binding of CRJB to linear peptide (PEPSCAN-ELISA signal) [1]: 112
Binding of CR57 (10 μg/ml) to looped/cyclic peptide (PEPSCAN-ELISA signal) [2]: 70
Binding of CRJA (10 μg/ml) to looped/cyclic peptide (PEPSCAN-ELISA signal) [3]: 41
Binding of CRJA to linear peptide (PEPSCAN-ELISA signal) [4]: 85
Binding of CR57 to linear peptide (PEPSCAN-ELISA signal) [5]: 73
Binding of CRJB (10 μg/ml) to looped/cyclic peptide (PEPSCAN-ELISA signal) [6]: 72

PIYTILDKLGPWSPI
Binding of CRJB to linear peptide (PEPSCAN-ELISA signal) [1]: 89
Binding of CR57 (10 μg/ml) to looped/cyclic peptide (PEPSCAN-ELISA signal) [2]: 58
Binding of CRJA (10 μg/ml) to looped/cyclic peptide (PEPSCAN-ELISA signal) [3]: 78
Binding of CRJA to linear peptide (PEPSCAN-ELISA signal) [4]: 143
Binding of CR57 to linear peptide (PEPSCAN-ELISA signal) [5]: 36
Binding of CRJB (10 μg/ml) to looped/cyclic peptide (PEPSCAN-ELISA signal) [6]: 77

IHHLSCPNNLVVEDE
Binding of CRJB to linear peptide (PEPSCAN-ELISA signal) [1]: 85
Binding of CR57 (10 μg/ml) to looped/cyclic peptide (PEPSCAN-ELISA signal) [2]: 46
Binding of CRJA (10 μg/ml) to looped/cyclic peptide (PEPSCAN-ELISA signal) [3]: 76
Binding of CRJA to linear peptide (PEPSCAN-ELISA signal) [4]: 79
Binding of CR57 to linear peptide (PEPSCAN-ELISA signal) [5]: 37
Binding of CRJB (10 μg/ml) to looped/cyclic peptide (PEPSCAN-ELISA signal) [6]: 71

DIFTNSRGKRASKGS
Binding of CRJB to linear peptide (PEPSCAN-ELISA signal) [1]: 107
Binding of CR57 (10 μg/ml) to looped/cyclic peptide (PEPSCAN-ELISA signal) [2]: 80
Binding of CRJA (10 μg/ml) to looped/cyclic peptide (PEPSCAN-ELISA signal) [3]: 99
Binding of CRJA to linear peptide (PEPSCAN-ELISA signal) [4]: 114
Binding of CR57 to linear peptide (PEPSCAN-ELISA signal) [5]: 70
Binding of CRJB (10 μg/ml) to looped/cyclic peptide (PEPSCAN-ELISA signal) [6]: 82

DGDEAEDFVEVHLPD
Binding of human monoclonal antibody CRJB to linear peptide (PEPSCAN-ELISA signal) [1]: 123
Binding of CR57 to looped/cyclic peptide (PEPSCAN-ELISA signal) [2]: 71
Binding of CRJA to looped/cyclic peptide (PEPSCAN-ELISA signal) [3]: 71
Binding of human monoclonal antibody CRJA to linear peptide (PEPSCAN-ELISA signal) [4]: 97
Binding of human monoclonal antibody CR57 to linear peptide (PEPSCAN-ELISA signal) [5]: 85
Binding of CRJB to looped/cyclic peptide (PEPSCAN-ELISA signal) [6]: 102
